# Assay results from article PMC3462190, “A Peptidic Unconjugated GRP78/BiP Ligand Modulates the Unfolded Protein Response and Induces Prostate Cancer Cell Death” (PLoS ONE, 2012).
# Where no end group is shown, it is not given here.
# B1: wild-type Bag-1 7-mer peptide (214RVMLIGK220), unlabeled (peptide)
# peptide: RVMLIGK
# notes: core peptide of Bag-1, residues 214-220 on Bag-1L numbering; also called seven amino acid core peptide
# B2: FITC-labeled 7-mer Bag-1 peptide (214RVMLIGK220) (peptide)
# peptide: RVMLIGK
# modifications: also: FITC label, place not given here
# notes: core peptide of Bag-1, residues 214-220 on Bag-1L numbering; also called FITC-peptide
# What was measured:
# [1] = tested on: 22Rv.1 cells; assay: Clonogenic assay; format: cell-based; conditions: neomycin selection, colonies quantified; mean ± SEM of at least three independent experiments
# Text: Figure 5 An N-terminal unfolded fragment of the Bag-1 peptide is sufficient to reduce tumor cell growth. A. Schematic diagram of the Bag-1 peptide and its deletion mutants. The ubiquitin-like domain is represented in blue and the BAG domain in red. The numbers refer to the amino acid positions of the different domains. The amino acid residues are numbered following the numbering for Bag-1L. B. Prediction of the secondary structure of the Bag-1 peptide, showing an N-terminal β-hairpin from the ubiquitin-like domain (blue) and a C-terminal α-helix from the BAG domain (red). C. Normalized circular dichroism spectra of the Bag-1 peptides. 30 µM of the Bag-1 peptide were measured in 20 mM KHPO4 buffer, pH 6.8 (black line). Its α-helical content was estimated to be approximately 25% by deconvolution of the spectra (red line). 12 µM of the N-term peptide (green line) and 11 µM of C-term (blue line) were measured under the same conditions. D. ^1H^15N-HSQC NMR spectrum of ^15N-labeled Bag-1 peptide (202–269) in 20 mm KHPO4 buffer, pH 6.8, at 23°C. […] The Hδ and Hε side chain signals of asparagine and glutamine are connected by thin lines. E. The N-terminal region of the Bag-1 peptide is important for GRP78 binding. 400 µg of 22Rv.1 cell lysate were incubated with glutathione-agarose beads carrying 15 µg GST-N-term peptide (lane 2), GST-C-term peptide (lane 3), GST-ΔUbi peptide (lane 4), GST-Bag-1(202–269) peptide (lane 5) and GST (lane 6). The beads were washed and the bound proteins were separated by 10% SDS-PAGE and subjected to Western blotting using antibodies directed against GRP78 or GST. […] F. Clonogenic assay of the Bag-1 peptides expressed in 22Rv.1 cells. Cells transfected with the indicated constructs were selected in medium containing neomycin and the colonies formed were quantified. Shown are the mean value ±SEM of at least three independent experiments using three different plasmid preparations (*p<0.05). […] Six-week old athymic nude mice were injected subcutaneously on both flanks with 5×10^6 cells of each stable clone. Tumor size was measured once per week using a caliper and expressed as tumor volume in mm^3. Shown are the tumor volumes of clones transfected with the N-terminal peptide (G), the C-terminal peptide (H) and the ΔUbi peptide (I). Each point represents the mean volume and standard deviation of at least 5 to 10 tumors.
# (§1) Figure 6 Selectivity of action of the Bag-1 peptide. A Amino acid sequence of the 19mer peptide and its deletion mutants. B GST pull-down assay performed incubating 400 µg of 22Rv.1 cell lysate and 25 µg of GST-fused deletion mutants of the 19mer peptide. After the pull-down experiment, Western blots were carried out with anti-GRP78/BiP and GST antibodies. C. Fluorescence polarization (FP) assays with a 10 nM FITC-labeled 7-mer Bag-1 peptide and dilutions of the GST-fused substrate binding domain of GRP78 in 60 µl of Tris-GSH buffer (50 mM Tris, 10 mM reduced glutathione and 0.1% BSA, pH 8.0). Triplicate samples were measured after 5 h of incubation at room temperature with an Infinite F-200 reader (Tecan) with excitation at 490 nm and emission at 535 nm. Binding constants were determined from three independent experiments using non-linear regression in Sigma Plot 10.0. D. Competition assays with a complex of 10 nM of FITC-labeled Bag-1 7-mer peptide and 0.75 mg/ml GST-fused GRP78 substrate binding domain was measured against a dilution series from 100 µM to 0.1 nM of wild-type Bag-1 7-mer peptide (filled line) or triple mutant peptide (dotted line) in 40 µl of Tris-GSH buffer. FITC-peptide and the FITC-peptide-protein complex were used as controls. Fluorescence polarization was determined as described above and IC50 values were determined in Sigma Plot. […]
# [2] = tested on: unfolded protein response in 22Rv.1 cells; assay: UPR modulation, Western blot / PCR in 22Rv.1 cells; format: cell-based
# Procedure: Unless otherwise stated, stable transfection was carried out in 22Rv.1 or BPH-1 cells with 10 µg of plasmid DNA using FuGene 6™ (Roche Diagnostics Mannheim, Germany) Stably transfected 22Rv.1 cells were selected with 0.8 mg/ml while BPH-1 cell clones were selected with 1.2 mg/ml G418. LNCaP, PC3, DU145, PNT-2 and RWPE-1 cell clones were selected with 1 mg/ml G418. Specific downregulation of GRP78 expression was achieved by transfecting siRNA-duplexes (GRP78∶5′-[…]-3′) twice in 72 h using HiPerfect™ (Qiagen Hilden, Germany). siRNA against GFP (5′-[…]-3′) was used as a control. Western blot analysis was performed as previously described.
# Figure 3 The Bag-1 peptide modulates the UPR and sensitizes 22Rv.1 cells to ER-stress. A. UPR modulation upon Bag-1 peptide overexpression. Pooled clones of 22Rv.1 cells transfected with pcDNA3.1-HA-Bag-1 68 amino acid peptide or an empty expression vector were treated with 300 nM thapsigargin (TG) for the indicated time points. Cells were lysed and subjected to Western blot analysis using the indicated antibodies or phospho-specific antibodies. B. The Bag-1 peptide sensitizes 22Rv.1 cells to ER-stress induced apoptosis. Pooled clones of 22Rv.1 transfected with the Bag-1 peptide or the empty expression vector were treated with thapsigargin (TG) or glucose-starved (GS) for 24 h. The cells were lysed and subjected to Western blot analysis using anti-PARP and caspase 4 specific antibodies. Anti-HA antibody was used to detect the HA-Bag-1 peptide. […] C. […] Pooled clones of 22Rv.1 expressing HA-tagged Bag-1 peptide or an empty expression vector were transfected with GRP78/BiP siRNA or control GFP siRNA. The cells were lysed and Western blot was carried out with anti-PARP, anti-GRP78 and anti-HA antibodies. β-actin antibody was used to determine the level of protein loaded on the gel.
# (§2) A. Real time PCR analysis of ATF6 gene expression following thapsigargin (300 nM) treatment for the indicated time points in 22Rv.1 cell clones with empty vector control (open bars) and peptide-expressing clones (filled bars). The RNA was extracted using PeqGold RNA pure (PeqLab, Germany) kit according to manufacturer’s instructions. For gene expression analysis, the following primers were used: Rib36 forward 5′-[…]-3′; reverse 5′-CCGGATATGAGGCAGCAG-3′; ATF6 forward 5′-[…]-3′; reverse 5′-[…]-3′. Each bar represents the mean of three independent experiments ± SEM. *p<0.05. B. Western blot analysis of ATF6 and its cleaved product (cATF6) in LNCaP cells stably expressing the empty vector control or the Bag-1 peptide. Anti-ATF6 specific antibody and an anti-HA specific antibody were used for the Western blot. β-actin antibody was used to determine equal loading control. Mouse monoclonal anti-ATF6 antibody was purchased from Imgenex (Hamburg, Germany), mouse monoclonal anti-HA antibody (HA.11 clone 16B12) was purchased from Covance (Munich, Germany) and anti-β-actin antibody was purchased from Abcam (Cambridge, UK). (TIF) Click here for additional data file.
# Supplementary file pone.0045690.s004.tif: Figure S4 The Bag-1 peptide induces GCN2 phosphorylation. 22Rv.1 cells stably expressing the empty vector control or the Bag-1 peptide were treated with thapsigargin (300 nM) for 16 h and subjected to Western blot analysis using anti-phospho-GCN2, GCN2 and HA-specific antibodies. The filters used in this experiment for the GCN2 signals are the same filters used in Figure 3A. The HA-Bag-1 peptide and the β-actin signals are therefore identical to that of Figure 3A. (TIF) Click here for additional data file.
# [3] = tested on: LNCaP prostate cancer cells; assay: ATF6 Western blot in LNCaP cells; format: cell-based; conditions: thapsigargin
# Procedure: as §2
# [4] = target: T1, GST-fused GRP78 substrate binding domain (Homo sapiens, UniProt P11021); assay: Fluorescence polarization competition assay; conditions: displacement of 10 nM FITC-labeled Bag-1 7-mer from 0.75 mg/ml GST-GRP78 SBD; competitor 100 µM to 0.1 nM, Tris-GSH buffer
# T1 construct: GRP78-SBD (GRP78 409–651); made in house
# Procedure: Fluorescence polarization assays were carried out using an Infinite F-200 reader (Tecan) with excitation at 490 nm and emission at 535 nm.
# as §1, with “[…] The colonies were stained” for “FITC-peptide”, “quantified.” for “the FITC-peptide-protein complex were used as controls. Fluorescence polarization was determined as described above and IC50 values were determined in Sigma Plot.”
# [5] = target: T2, GST-fused GRP78-SBD (GRP78 409-651) (UniProt P11021 409-651); assay: fluorescence polarisation; competition: complex of 10 nM FITC-labeled 7-mer peptide and 0.75 mg/ml GST-fused GRP78 SBD against 100 µM to 0.1 nM unlabeled peptide in Tris-GSH buffer; conditions: both partners purified
# T2 construct: Used on beads in pull-downs and in solution (GST kept) in fluorescence polarisation; also called GST-GRP78(SBD); source: bacterially purified GST fusion (pGEX4T.1)
# [6] = target: T2, GST-fused GRP78-SBD (GRP78 409-651); assay: fluorescence polarisation; 10 nM FITC-labeled 7-mer peptide with dilutions of GST-fused GRP78 SBD in Tris-GSH buffer (50 mM Tris, 10 mM reduced glutathione, 0.1% BSA, pH 8.0), 5 h at room temperature; conditions: both partners purified
# T2 sequence (P11021 409-651): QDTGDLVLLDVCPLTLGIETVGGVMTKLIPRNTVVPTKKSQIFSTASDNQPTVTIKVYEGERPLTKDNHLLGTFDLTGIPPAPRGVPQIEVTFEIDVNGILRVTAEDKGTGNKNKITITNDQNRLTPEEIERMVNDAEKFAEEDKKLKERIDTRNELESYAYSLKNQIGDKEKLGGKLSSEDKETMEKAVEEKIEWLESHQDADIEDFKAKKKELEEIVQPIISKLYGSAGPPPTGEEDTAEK
# T1 sequence (P11021 409-651): as above
molecule,measurement,setting,value
"19-mer mutant: 202–220 amino acid peptide with mutated core (VML exchanged with alanine residues) (TPLSALGIQDGCRAAAIGK; also: HA tag, end not given here)",22Rv.1 growth in clonogenic assay,[1],significantly reduced the ability of the 19 amino acid sequence to inhibit 22Rv.1 cell growth
"C/C=C(/C)C(=O)O[C@H]1C(C)=C2[C@H]([C@@H]1OC(=O)CCCCCCC)[C@@](C)(OC(C)=O)C[C@H](OC(=O)CCC)[C@@]1(O)[C@H]2OC(=O)[C@@]1(C)O [thapsigargin, reference compound]",ATF6 expression,"[2]; 22Rv.1 cells, thapsigargin 300 nM",enhanced the expression of this gene
same,UPR activation,"[2]; 22Rv.1 vector control cells, 300 nM thapsigargin",all three arms of the UPR were activated
same,ATF6 expression (protein level),[3],also seen in LNCaP prostate cancer cells at the protein level
RAAAIGK [RAAAIGK],IC50,[4],> 100 µM
RAAAIGK [triple mutant Bag-1 7-mer peptide (214RAAAIGK220)],IC50,[5],> 100 µM
B1,IC50,[5],2.6 ± 0.5 µM
B2,Kd,[6],5.7 ± 0.8 µM
